Data set [1] in a line: Rat in vivo pharmacokinetic study (distribution among plasma, brain and cerebrospinal fluid). Particulars: SD rats, single oral administration, 3 mg/kg, an hour after the administration. On the procedure: (Test 3: Rat in vivo pharmacokinetic study)
SD rats were given a single oral administration of Compound No. 8, 19 or 22 at a dose of 3 mg/kg and an hour after the administration, the compound's distribution among the plasma, brain, and cerebrospinal fluid was checked. Quantification was effected by a high-performance liquid chromatography/tandem mass spectrometer API 4000 (LC-MS/MS; AB Sciex).

The target in data set [2] is T1, H3 receptor (Rattus norvegicus, UniProt Q9QYN8).
T1 construct: The frontal cortex dissected from rats was homogenized; from tissue; host or cells: rat frontal cortex membrane fraction
The data set is described as follows: Rat H3 receptor binding test (N-α-methyl[3H]histamine, frontal cortex membrane fraction). Particulars: N-α-methyl[3H]histamine 0.75 nM, room temperature, an hour. On the procedure: (Test 1: Rat H3 Receptor Binding Test)
The frontal cortex dissected from rats was homogenized with a Teflon (registered trademark) homogenizer in a 50 mM Tris-HCl buffer solution (pH 7.4) containing a protease inhibitor (Complete EDTA-free; Roche Diagnostics) and 5 mM EDTA. The homogenate was centrifuged at 48,000×g for 15 minutes. The supernatant was removed and the pellet was suspended in a 50 mM Tris-HCl buffer solution (pH 7.4) containing 5 mM EDTA and centrifuged at 48,000×g for 15 minutes. The supernatant was removed and the pellet was suspended in a 50 mM Tris-HCl buffer solution (pH 7.4) containing 5 mM EDTA to give a membrane fraction. The membrane fraction (the protein content in the final reaction mixture: 75 μg), N-α-methyl[^3H]histamine (PerkinElmer; final concentration: 0.75 nM) and a test drug were mixed and subjected to reaction at room temperature for an hour. After the end of the reaction, the reaction mixture was suction filtered through a 96-well GF/C filter plate pretreated with 0.3% polyethyleneimine; the filters were then washed five times with a 50 mM Tris-HCl buffer solution (pH 7.4) containing 5 mM EDTA. After the washing, the filters were dried and a scintillator was added to measure the residual radioactivity on the filter with TopCount (PerkinElmer).
The residual radioactivity in the presence of 10 μM thioperamide was taken as indicative of nonspecific binding and the difference from the residual radioactivity in the absence of thioperamide was taken as indicative of specific binding. Each of the test drugs was dissolved and diluted in DMSO at varying concentrations to plot a dose-response curve from the corresponding residual radioactivities; the concentration of test drug that inhibited the specific binding by 50% (IC50) was determined from this curve.

For data set [3], the target named is T2, histamine H3 receptor (Rattus norvegicus, UniProt Q9QYN8).
T2 construct: The frontal cortex dissected from rats was homogenized; from tissue; host or cells: rat frontal cortex membrane fraction
In words: [35S]GTP-γ-S binding test (R(−)-α-methyl histamine stimulated, frontal cortex membrane fraction). The format is biochemical. To be noted: R(−)-α-methyl histamine 300 nM, [35S]GTP-γ-S 0.3 nM. On the procedure:
The frontal cortex dissected from rats was homogenized with a Teflon (registered trademark) homogenizer in a 30 mM Tris-HCl buffer solution (pH 7.4) containing 2.5 mM calcium chloride dihydrate. The homogenate was centrifuged at 48,000×g for 15 minutes. The supernatant was removed and the pellet was suspended in a 30 mM Tris-HCl buffer solution (pH 7.4) containing 2.5 mM calcium chloride dihydrate and centrifuged at 48,000×g for 15 minutes. The supernatant was removed and the pellet was suspended in a 30 mM Tris-HCl buffer solution (pH 7.4) containing 2.5 mM calcium chloride dihydrate and after incubation at 37° C. for 30 minutes, the suspension was centrifuged at 48,000×g for 15 minutes. The resulting supernatant was removed and the pellet was suspended in a 20 mM HEPES buffer solution (pH 7.4) containing 100 mM sodium chloride and 10 mM magnesium chloride to give a membrane fraction. […] After the washing, the filters were dried and a scintillator was added to measure the residual radioactivity on the filter with TopCount (PerkinElmer).
The residual radioactivity in the absence of R(−)-α-methyl histamine was taken as indicative of nonspecific binding and the difference from the residual radioactivity in the presence of R(−)-α-methyl histamine was taken as indicative of specific binding. […]

For data set [4], the target named is T3, P-glycoprotein (human MDR1) (Homo sapiens, UniProt P08183).
T3 construct: expressed in transfected cells; host or cells: LLC-GA5-COL300 (LLC-PK1 pig kidney epithelial cells expressing human MDR1)
The data set is described as follows: P-glycoprotein substrate recognition test (LLC-GA5-COL300 cells, transwell). The format is in vitro ADME. Particulars: LLC-PK1, ratio of membrane permeation coefficients for apical→basal and basal→apical directions. The protocol: (Test 4: P-Glycoprotein Substrate Recognition Test)
LLC-GA5-COL300 cells (Human MDR1 expressing system derived from pig kidney derived, cultured renal epithelial cell line LLC-PK1) were cultured on a transwell. Immediately before the test, the culture medium was replaced by Hank's balanced salt solution (HBSS) and the test was then conducted. A solution of an assay compound adjusted to a final concentration of 10 μM was added to the donor side of LLC-GA5-COL300 cells and after the passage of a predetermined period of time, a specified quantity of […] was sampled from the acceptor side. The concentration of the assay compound in the sample was measured by LC-MS/MS. From the amounts of the compound that accumulated and passed into the acceptor side, membrane permeation coefficients (×10^−6 cm/sec) were calculated for apical→basal and basal→apical directions and their relative ratio (efflux ratio) was determined to evaluate the P-glycoprotein substrate recognition.

Like-named read-outs stand apart in the source and are kept apart here.

T2 sequence (Q9QYN8 whole entry): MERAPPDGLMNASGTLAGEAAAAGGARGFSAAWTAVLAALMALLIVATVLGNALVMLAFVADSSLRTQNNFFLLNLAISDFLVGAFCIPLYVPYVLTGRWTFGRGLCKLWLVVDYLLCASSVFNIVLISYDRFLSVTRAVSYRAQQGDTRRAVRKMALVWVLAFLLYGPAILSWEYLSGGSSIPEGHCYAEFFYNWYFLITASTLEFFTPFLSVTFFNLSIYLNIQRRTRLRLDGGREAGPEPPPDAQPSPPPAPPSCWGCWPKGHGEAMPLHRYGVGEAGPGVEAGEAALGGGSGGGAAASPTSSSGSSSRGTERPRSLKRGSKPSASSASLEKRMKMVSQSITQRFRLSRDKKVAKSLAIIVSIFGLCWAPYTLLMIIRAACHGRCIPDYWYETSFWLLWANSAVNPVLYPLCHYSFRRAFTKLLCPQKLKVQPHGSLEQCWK
T1 sequence (Q9QYN8 whole entry): as above
T3 sequence (P08183 whole entry): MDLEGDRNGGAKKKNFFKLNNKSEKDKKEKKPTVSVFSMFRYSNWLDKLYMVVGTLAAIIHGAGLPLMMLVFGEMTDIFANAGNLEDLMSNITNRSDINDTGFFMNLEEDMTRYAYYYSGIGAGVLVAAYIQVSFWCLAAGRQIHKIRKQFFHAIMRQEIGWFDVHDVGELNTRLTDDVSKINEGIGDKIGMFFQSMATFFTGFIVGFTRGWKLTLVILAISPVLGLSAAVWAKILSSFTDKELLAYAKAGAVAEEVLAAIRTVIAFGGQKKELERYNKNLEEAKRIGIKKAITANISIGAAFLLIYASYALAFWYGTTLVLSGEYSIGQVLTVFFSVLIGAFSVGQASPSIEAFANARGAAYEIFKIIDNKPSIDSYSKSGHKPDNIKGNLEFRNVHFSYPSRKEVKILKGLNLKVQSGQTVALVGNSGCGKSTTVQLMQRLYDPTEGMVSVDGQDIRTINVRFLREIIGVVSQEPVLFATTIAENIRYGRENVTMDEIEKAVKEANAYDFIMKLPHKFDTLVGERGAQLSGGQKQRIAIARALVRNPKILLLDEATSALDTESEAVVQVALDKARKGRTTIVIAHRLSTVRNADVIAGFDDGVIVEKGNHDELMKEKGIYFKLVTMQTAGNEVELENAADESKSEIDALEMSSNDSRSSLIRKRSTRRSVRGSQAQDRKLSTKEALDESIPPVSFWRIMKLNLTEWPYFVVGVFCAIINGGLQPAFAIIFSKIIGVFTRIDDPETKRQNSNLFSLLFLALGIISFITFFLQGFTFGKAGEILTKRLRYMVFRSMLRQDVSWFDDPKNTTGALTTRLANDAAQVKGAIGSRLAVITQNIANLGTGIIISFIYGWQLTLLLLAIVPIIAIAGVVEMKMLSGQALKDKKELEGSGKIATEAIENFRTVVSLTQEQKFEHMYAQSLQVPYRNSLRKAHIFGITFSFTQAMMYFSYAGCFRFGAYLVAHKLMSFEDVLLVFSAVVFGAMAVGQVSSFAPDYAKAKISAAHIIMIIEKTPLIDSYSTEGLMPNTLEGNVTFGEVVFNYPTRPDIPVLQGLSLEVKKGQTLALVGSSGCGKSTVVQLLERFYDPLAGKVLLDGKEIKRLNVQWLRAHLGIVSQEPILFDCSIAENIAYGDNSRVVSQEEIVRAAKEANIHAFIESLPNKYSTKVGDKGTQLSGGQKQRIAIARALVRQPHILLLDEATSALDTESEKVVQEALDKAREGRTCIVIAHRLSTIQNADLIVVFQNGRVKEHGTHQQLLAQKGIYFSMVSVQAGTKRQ

`O=C(c1cn(-c2ccc(OC3CCN(C4CCC4)CC3)cc2)nn1)N1CCCC1` [Compound No. 8, (1-{4-[(1-cyclobutylpiperidin-4-yl)oxy]phenyl}-1H-1,2,3-triazol-4-yl)(pyrrolidin-1-yl)methanone]: the concentration at 1 h came out at 45.7 ng/g in data set [1] (brain, read-out: intracerebral concentration) and 2.9 ng/mL in data set [1] (cerebrospinal fluid, read-out: cerebrospinal fluid concentration). The Kp at 1 h in data set [1] (brain/plasma, read-out: brain/plasma movement ratio) came to 3; in data set [1] (cerebrospinal fluid/plasma, read-out: cerebrospinal fluid/plasma movement ratio) it was 0.2. Also, the IC50 was 1.8 nM in data set [2] and no more than 100 nM in data set [3]. The efflux ratio at 10 μM in data set [4] turned out to be 1.

Source of the values: patent US20150045553A1, “PHENYLTRIAZOLE DERIVATIVE” (TOSHO PHARMACEUTICAL CO., LTD, priority 2011, published 2015).
